Assay results from patent publication US20240148762A1, “TOPICAL COMPOSITION CONTAINING CANNABINOIDS” (TF Holdings LLC, priority 2022, published 2024).

Test: MTT assay of viability and metabolic activity of ex vivo human skin explants after topical application
Assay type: cell-based
Settings: ex vivo human skin explants (5 mm); ex vivo human skin 5 mm explants, 48 hours post treatment, 37° C., compared to the untreated skin control, n=3
Description: Sample 1 was tested to determine its toxicity and metabolic properties in comparison to a control and three commercial cleaning agents (irritants)— “SDS” (sodium dodecyl sulfate), Triton™ X-100, and Tween® 20. Human skin was obtained via post-surgical elective surgery under IRB protocol and prepared within 2 hours of surgery as 5 mm explants. The compositions were applied to the surface of the epidermis and incubated for 24 hours and 48 hours at 37° C. At each time point, explants were assessed for viability and metabolic activity via a MTT assay (n=3; mean+/−SEM), a colorimetric assay for assessing cell metabolic activity. […] The metabolic activity (viability) of tissues treated with Sample 1 remained above 50% at 48 hours post treatment compared to the untreated skin control, while those treated with Trition ° X-100 and SDS were <10% and are illustrated in the graph below that plots percent viability and time.

CCCCCCCCCCCCOS(=O)(=O)[O-].[Na+] [SDS, sodium dodecyl sulfate]
viability at 48 h: < 10%
